SMILES strings stand for the structures. Where “and” joins values, the source holds several entries; their conditions need not be identical. Equal values may be shown once. Read-outs that look alike come from different tables or passages of the source.

Assay [1] addresses T1, D2R (Homo sapiens, UniProt P14416).
T1 construct: expressed in transfected cells; host or cells: HEK 293
As to the kind of experiment: Fluo-cariprazine PharmacoSTORM signal in D2R-expressing cells (Supplementary Fig. S6d). The assay is classed as binding.
Source text: Generation of N-terminally EGFP-tagged mouse CB1R was previously described[8]. The coding sequence of monoacylglycerol lipase (MAGL) was amplified with mMGL_fw and mMGL_rev primers using a mouse brain cDNA library as a template. The PCR product was digested with HindIII and BamHI enzymes and cloned into pcDNA3.1 backbone. GFP-MGL was constructed by subcloning the open reading frame of MAGL into pAcGFP1-C1 vector following HindIII/BamHI digestion. […] The amplified DNA was inserted into pcDNA3.1 vector between the BamHI and XhoI restriction sites. TMEM35 in pCMV6 vector was from Origene (RC209790). The pGloSensor™-22F cAMP plasmid was from Promega. The plasmid encoding CB1R was generated by inserting the coding sequence of human CB1R into pCAGIG vector. The plasmids encoding Gi1 subunits (αi1, β1, and γ2) were from the cDNA Resource Center. We created Gαi1–Rluc8 using overlap exchange PCR, Rluc8 was inserted into Gαi1 between residue 91 and 92 with SGGGGS linkers similar to a previous design[77]. Venus–β1 was created by replacing YFP with Venus in YFP–β1 using restriction digestion, YFP–β1 plasmid construct was described previously[78].
For microscopic experiments, cells were seeded one day before transfection on poly-D-lysine-coated coverslips in 24-well culture plates. Coverslips were cleaned with extensive 2 M NaOH and 70% ethanol washing steps prior to use. Transient transfection was done with Lipofectamine 2000 (Thermo Fischer) according to the manufacturer’s protocol. After transfection (20–28 h), pharmacological treatment was applied and then combined with immunolabeling. The full procedure was optimized for each investigated protein. In the case of D3R-, CB1R-, and α7-nAchR-expressing cells, all labeling and washing steps were executed in Hanks’ balanced salt solution (Sigma-Aldrich H6648) on live cells, and in Dulbecco’s Phosphate Buffered Saline (Corning, 21-031-CV) on fixed cells. The labeling steps with antibodies, ligands, or fixatives were followed by three washing steps. […] Unless otherwise stated, we used CF568-labeled secondary antibodies.
The HA-D3R-expressing cells were live-stained with anti-HA primary and secondary antibodies for 10 min at room temperature. […] Cells were fixed in 4% PFA for 10 min before imaging. For Supplementary Fig. S5g, Cy5-labeled secondary antibody was applied, without fluorescent ligand treatment. For fluo-cannabinoid binding experiments, all steps were executed at room temperature. […] MAGL pharmacological labeling was performed in culture medium in a 5% CO2 atmosphere at 37 °C. […] Before immunolabeling, cells were washed with 100% methanol three times for 10 min and were blocked with 5% normal donkey serum (NDS) in 0.1 M phosphate buffer (PB; pH 7.4), for 30 min. Anti-GFP immunolabeling was done in 0.1 M PB and immunostained cells were postfixed with 4% PFA before imaging. In the case of α7-nAChR experiments, its chaperon protein, NACHO (TMEM35) was co-transfected in a 10 to 1 receptor:chaperon ratio in order to enhance cell-surface expression of the ion channel[79]. MLA pretreatment and Alexa647-bungarotoxin labeling were done at 4 °C for 20 min. After pharmacological labeling, the cells were fixed with 4% PFA, and subsequent anti-HA-immunolabeling was done at room temperature. Immunolabeling was followed by post-fixation.
To analyze the number of localization points (LPs) in membranes of cultured cells, we merged the dSTORM images obtained from pharmacolabeling (PharmacoSTORM) and immunolabeling (ImmunoSTORM). […]

Assay [2] addresses T2, CB1R (Homo sapiens, UniProt P21554). As to the kind of experiment: Ligand-binding assay, affinity of fluo-cannabinoid for CB1R (Supplementary Table S1).
The target of assay [3] is T2, CB1R. In kind it is cell-based. Set-up: expressed in transfected cells; host or cells: HEK 293T. The note with it: for cAMP reduction (%): single experiments.
For assay [4], the target named is T3, D3R (Homo sapiens, UniProt P35462).
T3 construct: expressed in transfected cells; host or cells: HEK 293 (microscopy), HEK 293T (BRET)
As to the kind of experiment: BRET-based Gi1-activation assay in HEK 293T cells. In kind it is cell-based. The text has this:
The next day we replaced the medium with modified Kreb’s Ringer medium and performed BRET experiments using a Thermo Scientific Varioskan Flash multimode plate reader similarly as previously described. […] To calculate the BRET response, we first subtracted the BRET ratio of cells coexpressing the untagged β1 subunit from the BRET ratio of cells coexpressing Venus-β1. Then we corrected the baseline BRET ratio and subtracted the BRET ratio of vehicle-treated cells from the average BRET ratio of stimulus-treated cells. All BRET measurements were performed in triplicates.
On the technique in general: Bioluminescence resonance energy transfer reports proximity on the nanometre scale.

Assay [5] addresses T4, MAGL (Homo sapiens, UniProt Q99685).
T4 sequence (Q99685 1-303): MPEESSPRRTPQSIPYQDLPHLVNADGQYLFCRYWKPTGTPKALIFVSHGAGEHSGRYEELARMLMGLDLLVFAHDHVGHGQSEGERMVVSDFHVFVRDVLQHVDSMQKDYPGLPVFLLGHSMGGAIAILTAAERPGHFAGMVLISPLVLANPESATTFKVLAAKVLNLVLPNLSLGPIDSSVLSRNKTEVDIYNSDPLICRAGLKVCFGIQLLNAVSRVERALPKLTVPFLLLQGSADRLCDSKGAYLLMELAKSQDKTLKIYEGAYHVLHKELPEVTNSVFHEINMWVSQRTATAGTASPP
Nature of the assay: 2-Arachidonoylglycerol-based fluorescence assay for DH-463. In kind it is biochemical. The protocol: The natural substrate assays were performed as reported previously[80],[81]. All chemicals and reagents were purchased from Sigma-Aldrich, unless mentioned otherwise. […] 2-Arachidonoylglycerol was from Cayman Chemical. All measurements were performed in n = 4 or n = 8 for controls, with Z’ ≥ 0.6.

In assay [6] the target is α7-nAchR-HA (Homo sapiens, UniProt P36544).
In assay [7] the target is T5, D3R in the Islands of Calleja (Mus musculus, UniProt P30728).
T5 construct: from tissue; host or cells: mouse brain (Islands of Calleja, ventral and dorsal striatum); acute slices or fresh-frozen cryosections
As to the kind of experiment: In vivo competitive drug-binding measurement (cariprazine i.p., then Fluo-CAR labeling of acute slices). As to conditions: cariprazine 1 mg/kg i.p., 2 h. The procedure: Male 26–33-days-old C57BL/6 mice were intraperitoneally injected with 1 mg/kg cariprazine or an equal volume of vehicle (0.9% saline + 1% Tween80). After injection (2 h), pharmacological tissue labeling was carried out similarly to the previous experiments. […] Slices were rinsed three times with ACSF and fixed overnight with 4% PFA. Slices were either processed for correlated confocal and STORM imaging or for conventional confocal imaging.

[8] abbreviates: log(agonist) vs. response, variable slope.

T3 sequence (P35462 whole entry): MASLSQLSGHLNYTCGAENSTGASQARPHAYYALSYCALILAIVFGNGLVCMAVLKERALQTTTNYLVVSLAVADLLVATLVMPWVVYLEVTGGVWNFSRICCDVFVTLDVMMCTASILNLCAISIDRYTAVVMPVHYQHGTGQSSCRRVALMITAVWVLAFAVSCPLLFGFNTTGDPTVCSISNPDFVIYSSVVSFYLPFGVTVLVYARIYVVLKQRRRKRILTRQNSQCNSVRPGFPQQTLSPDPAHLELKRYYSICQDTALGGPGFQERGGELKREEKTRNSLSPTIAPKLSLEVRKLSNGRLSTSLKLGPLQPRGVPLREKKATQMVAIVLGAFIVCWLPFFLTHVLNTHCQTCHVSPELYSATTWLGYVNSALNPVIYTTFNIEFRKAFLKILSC
T5 sequence (P30728 whole entry): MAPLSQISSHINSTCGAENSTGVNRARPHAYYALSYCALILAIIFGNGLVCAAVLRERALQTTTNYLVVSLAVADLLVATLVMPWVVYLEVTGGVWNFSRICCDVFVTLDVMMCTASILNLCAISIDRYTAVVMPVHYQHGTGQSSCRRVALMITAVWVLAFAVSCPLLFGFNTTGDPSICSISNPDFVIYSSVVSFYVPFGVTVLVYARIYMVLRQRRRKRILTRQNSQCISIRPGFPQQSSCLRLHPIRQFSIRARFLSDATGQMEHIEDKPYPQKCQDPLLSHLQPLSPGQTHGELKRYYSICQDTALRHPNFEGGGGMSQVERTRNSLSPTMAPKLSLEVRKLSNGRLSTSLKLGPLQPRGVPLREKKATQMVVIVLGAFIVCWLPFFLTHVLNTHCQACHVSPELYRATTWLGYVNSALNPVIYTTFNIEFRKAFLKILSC
T2 sequence (P21554 whole entry): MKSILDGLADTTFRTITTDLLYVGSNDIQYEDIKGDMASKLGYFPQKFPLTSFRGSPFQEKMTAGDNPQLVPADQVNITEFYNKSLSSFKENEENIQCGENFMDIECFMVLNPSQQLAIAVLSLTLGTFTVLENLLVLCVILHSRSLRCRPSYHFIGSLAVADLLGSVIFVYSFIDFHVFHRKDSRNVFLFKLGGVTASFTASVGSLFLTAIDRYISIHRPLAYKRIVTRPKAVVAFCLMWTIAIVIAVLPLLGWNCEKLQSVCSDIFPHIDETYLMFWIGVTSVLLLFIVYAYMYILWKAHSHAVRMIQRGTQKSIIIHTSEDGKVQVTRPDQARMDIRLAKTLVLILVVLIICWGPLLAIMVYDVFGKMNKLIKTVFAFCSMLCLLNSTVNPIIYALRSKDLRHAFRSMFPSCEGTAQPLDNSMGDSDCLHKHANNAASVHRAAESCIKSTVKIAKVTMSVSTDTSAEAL
T1 sequence (P14416 whole entry): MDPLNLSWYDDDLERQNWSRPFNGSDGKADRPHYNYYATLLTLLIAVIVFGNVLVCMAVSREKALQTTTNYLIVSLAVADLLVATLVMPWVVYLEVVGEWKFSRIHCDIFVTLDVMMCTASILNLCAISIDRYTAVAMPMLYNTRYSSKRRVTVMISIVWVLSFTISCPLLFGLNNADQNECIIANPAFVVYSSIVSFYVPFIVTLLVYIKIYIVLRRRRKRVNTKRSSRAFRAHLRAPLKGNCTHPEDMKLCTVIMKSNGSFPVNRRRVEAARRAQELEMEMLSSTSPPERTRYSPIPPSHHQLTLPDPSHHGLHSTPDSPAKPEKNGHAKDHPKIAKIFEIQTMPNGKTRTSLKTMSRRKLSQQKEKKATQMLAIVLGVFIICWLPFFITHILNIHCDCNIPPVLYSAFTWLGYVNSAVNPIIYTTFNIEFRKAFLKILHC
α7-nAchR-HA, sequence (P36544 23-502): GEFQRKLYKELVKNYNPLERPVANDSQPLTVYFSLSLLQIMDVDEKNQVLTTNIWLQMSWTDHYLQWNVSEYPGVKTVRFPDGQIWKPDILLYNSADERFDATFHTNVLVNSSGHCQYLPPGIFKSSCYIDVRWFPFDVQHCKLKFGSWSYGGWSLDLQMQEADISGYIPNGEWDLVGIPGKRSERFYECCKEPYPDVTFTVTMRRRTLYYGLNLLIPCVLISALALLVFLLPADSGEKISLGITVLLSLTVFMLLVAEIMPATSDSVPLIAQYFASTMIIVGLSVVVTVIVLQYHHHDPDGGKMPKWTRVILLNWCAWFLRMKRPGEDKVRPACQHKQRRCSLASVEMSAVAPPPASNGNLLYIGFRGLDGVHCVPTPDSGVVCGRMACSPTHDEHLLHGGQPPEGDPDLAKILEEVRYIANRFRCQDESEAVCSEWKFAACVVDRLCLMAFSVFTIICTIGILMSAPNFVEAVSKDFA

In the case of `CN(CCCNC(=O)CCCCC[N+]1=C(/C=C/C=C/C=C2/N(C)c3ccc(S(=O)(=O)O)cc3C2(C)C)C(C)(C)c2cc(S(=O)(=O)[O-])ccc21)C(=O)N[C@H]1CC[C@@H](CCN2CCN(c3cccc(Cl)c3Cl)CC2)CC1` [fluo-cariprazine], the “PharmacoSTORM LPs / ImmunoSTORM LPs (% of D3R), actual mean” value in assay [1] is listed as 7,203%. Also, the “PharmacoSTORM LPs / ImmunoSTORM LPs (% of D3R)” value in assay [1] (single experiments) was 3.466% and 8.432% and 4.243% and 12.6707%.
Consider `CCCCCCC(C)(C)c1cc(O)c2c(c1)OC(C)(C)c1ccc(CNCCCCCCNC(=O)CCCCC[N+]3=C(/C=C/C=C/C=C4/N(C)c5ccc(S(=O)(=O)O)cc5C4(C)C)C(C)(C)c4cc(S(=O)(=O)[O-])ccc43)cc1-2` [fluo-cannabinoid], for which affinity in assay [2] was put at a Ki of 3.5 nM. Also, the “HILLSLOPE (best-fit)” value in assay [3] was 0,9981. In assay [3], the “Span (best-fit), cAMP reduction” value is listed as 37,53%. Also, the “cAMP reduction (%)” value in assay [3] (10-6.5 M) is 31.4472% and 32.8666% and 33.3129% and 25.9155% and 23.0595%; in assay [3] (10-8.5 M) it was -1.6297% and 1.0916% and -1.1492% and -4.3119% and 0.7084%; in assay [3] (10^-6 M), 35.6911% and 25.5164% and 35.8634% and 19.8904% and 28.6228%; in assay [3] (10^-9 M), 0%. Further, the “LOGEC50 (best-fit)” value in assay [3] (concentration in M) is -7,482. The Emax (usually the size of the effect at its maximum, as opposed to the concentration needed) in assay [3] (in vitro cAMP assay on CB1R) is listed as 36.1%. Besides, the “BOTTOM (best-fit), cAMP reduction” value in assay [3] (setting [8]) was -1,444%. Moreover, the “TOP (best-fit), cAMP reduction” value in assay [3] (setting [8]) is on record as 36,09%. In assay [3] (read-out: EC50 (best-fit)), the EC50 (commonly the concentration needed to bring the measured effect to its halfway point) was 33 nM.
With `CCCN1CCO[C@@H]2c3cc(O)ccc3OC[C@H]21` [PD128907], the “Gi1-BRET response (%, norm. to pretreatment)” value in assay [4] (PD 128907 10-6.5 M, vehicle pretreatment) is 106.065% and 96.3019% and 97.7639%; in assay [4] (PD 128907 10-7.5 M, vehicle pretreatment), 94.4647% and 90.0327% and 83.0176%; in assay [4] (PD 128907 10-8.5 M, vehicle pretreatment), 62.6732% and 52.2099% and 77.0199%; in assay [4] (PD 128907 10-9.5 M, vehicle pretreatment), 23.5448% and 22.9857% and 15.0109%; in assay [4] (PD 128907 10^-6 M, vehicle pretreatment) it was 100%; in assay [4] (PD 128907 10^-7 M, vehicle pretreatment), 92.6877% and 91.1582% and 95.9579%. Also, the “Gi1-BRET response (%, norm. to pretreatment)” value in assay [4] (PD 128907 10^-8 M, vehicle pretreatment) was 89.6043% and 74.7508% and 92.6073%; in assay [4] (PD 128907 10^-9 M, vehicle pretreatment) it was 56.1354% and 47.8674% and 57.7701%. For the same compound, the “TOP (best-fit), Gi1-BRET response” value in assay [4] (PD 128907, vehicle pretreatment) is 95,84%. Moreover, in assay [4] (PD 128907, vehicle pretreatment, concentration in M), the “LOGEC50 (best-fit)” value is reported as -8,980. Further, in assay [4] (vehicle pretreatment, n = 3, read-out: EC50 of PD128907), the EC50 came to 1.05 nM.
Consider `CN1/C(=C/C=C/C=C/C2=[N+](CCCCCC(=O)NCc3cn(CCOc4ccc(C(c5ccc(Cl)cc5)N5CCN(C(=O)OC(C(F)(F)F)C(F)(F)F)CC5)cc4)nn3)c3ccccc3C2(C)C)C(C)(C)c2ccccc21.[Cl-]` (centres unmarked) [DH-463], for which the “HILLSLOPE (best-fit)” value in assay [5] is -0,7836. The “MAGL activity (%), mean” value was found to be 5.023% in assay [5] (10^-5 M); 10.8061% in assay [5] (10^-6 M); 27.8239% in assay [5] (10^-7 M); 51.3279% in assay [5] (10^-8 M); 91.5194% in assay [5] (10^-9 M); 105.132% in assay [5] (10^-10 M). Besides, the “LOGIC50 (best-fit)” value in assay [5] (concentration in M) was -7,938. Further, the “BOTTOM (best-fit), MAGL activity” value in assay [5] (log(inhibitor) vs. response, variable slope) is 7,823%. Further, in assay [5] (read-out: IC50 (best-fit)), the IC50 (as a rule, the concentration that inhibits the measured activity by half) is 11.5 nM.
Turning to `CCN1C[C@]2(COC(=O)c3ccccc3N3C(=O)C[C@H](C)C3=O)CC[C@H](OC)[C@@]34[C@@H]5C[C@H]6[C@H](OC)[C@@H]5[C@](O)(C[C@@H]6OC)[C@@](O)([C@@H](OC)[C@H]23)[C@@H]14` [methyllycaconitine], the “effect on PharmacoSTORM signal of Alexa647-α-bungarotoxin” value in assay [6] was “fully prevented”.
Take `CN(C)C(=O)N[C@H]1CC[C@H](CCN2CCN(c3cccc(Cl)c3Cl)CC2)CC1` [cariprazine]: in assay [7], the “effect on fluo-cariprazine signal in the hilar subregion of the Islands of Calleja” value was “completely eliminated”. Also, in assay [7] (slices with 30 nM Fluo-CAR, Islands of Calleja, per animal), the “Fluo-CAR STORM density (LPs/μm2)” value was 0.8583 LPs/μm2 and 0.5531 LPs/μm2 and 1.2207 LPs/μm2 and 0.9766 LPs/μm2.
